From article PMC7955127, “Preclinical small molecule WEHI-7326 overcomes drug resistance and elicits response in patient-derived xenograft models of human treatment-refractory tumors” (Cell Death & Disease, 2021) come the findings set out here.

One assay concerns tubulin in SW480 cells. Nature of the assay: Tubulin polymerization in cells (polymerized vs soluble, western blot). Type of assay: cell-based, human. To be noted: 100 nM, overnight, vs control cells. Here is the method:
Cells incubated with control or with inhibitors were lysed in hypotonic buffer (1 mM MgCl2/2 mM EGTA/0.5% Nonidet P-40/20 mM Tris·HCl, pH 6.8 with the addition of complete protease inhibitor cocktail). The lysates were centrifuged at 14,000 rpm for 10 min at RT. Supernatants (containing soluble tubulin) and pellets (containing polymerized tubulin) were separated and each sample was brought to an equal volume with hypotonic buffer. Proteins were resolved by SDS/PAGE on 4–12% gels (Invitrogen, Carlsbad, CA), transferred to nitrocellulose and immunoblotted with an antibody against tubulin followed by fluorescent secondary antibody. Immunoreactive bands were detected using an Odyssey photometer (Li-Cor, Lincoln, NB).

The subject of a further assay is U87MGΔ2–7. Briefly: Cell growth inhibition assay, U87MGΔ2–7. The format is cell-based. Particulars: Homo sapiens; U87MGΔ2–7, glioblastoma expressing activated EGFR; 72 h viability assay, CellTiterGlo; mean of 3 ± SEM; read-out: IC50 (inhibition of cellular proliferation). Here is the method: Cells were plated at a density of between 500 to 5000 cells per well for adherent cell lines depending on doubling time, and 15,000 cells per well for lymphoblastic leukemia cell lines, in a 96-well plate in 200 μl of growth media. Plates were incubated overnight at 37 °C before adding the inhibitors. Inhibitors were serially diluted from the stock solutions in complete medium and added to the cells. […] Cell viability was assessed by the AlamarBlue (Invitrogen) or CellTiterBlue/Glo (Promega) method according to manufacturer’s instructions. The curve fits and IC50 values were generated in PRISM (GraphPad, San Diego, CA).
For orientation: Cellular ATP, detected with luciferase, serves as a proxy for viable cell number.

Structures are written as SMILES.

Consider `COc1ccc(CNc2nc(NCc3ccc(CN)cc3)nc(NN3CC(=O)NC3=O)n2)cc1` [WEHI-7326], for which, in the assay with tubulin in SW480 cells, the “Change in ratio of polymerized to soluble tubulin” value is given as “no significant change”. In the assay with U87MGΔ2–7, the IC50 came out at 6.1 ± 1.6 nM.
